No end group written: not given here.
Columns and labels:
Experiment in all cases: biochemical
Assay type in all cases: binding
A*3301 = A*3301 (Homo sapiens, UniProt P04439, A270S/D185E/E176V/E277Q/E87N/F33T/G231S/H175R/I121M/I218V/I322F/K168Q/K210R/L300P/L318F/M331R/P217A/Q86R/Q94H/R138Q/T323A/T345S/T97I/V358M/Y195H)
A31 (A*3101) = A31 (A*3101) (Homo sapiens, UniProt P04439, A270S/D185E/E176V/E277Q/F33T/G231S/G80R/H175R/I121M/I218V/I322F/K168Q/L300P/L318F/M331R/P217A/Q94H/R138Q/T323A/T345S/T97I/V358M)
HLA-A3.2 (A*0301) = HLA-A3.2 (A*0301) (Homo sapiens, UniProt P04439)
A*6801 = A*6801 (Homo sapiens, UniProt P04439, A269V/D185E/E176V/E277Q/E87N/F33Y/G231S/I121M/I166T/I218V/L180W/L300P/L318F/N151K/P208A/P217A/Q86R/R169H/T345S)
HLA-A11 (A*1101) = HLA-A11 (A*1101) (Homo sapiens, UniProt P04439, A114D/D185E/E176A/F33Y/L180Q/S129P/T187R)

Molecule	IC50 (A*3301) [nM]	IC50 (A31 (A*3101)) [nM]	IC50 (HLA-A3.2 (A*0301)) [nM]	IC50 (A*6801) [nM]	IC50 (HLA-A11 (A*1101)) [nM]
KLFLKGVPKK [Peptide 1587.40]	> 20000	1040	16	> 20000	–
PVRPQVPLR [Peptide 66.0063]	–	–	> 20000	–	–
SQISYWQLIR [Peptide 88.0220]	> 20000	–	2610	934	–
ILTAFNSSHK [Peptide 1589.03]	> 20000	–	12	6390	–
SQWIKYRCSK [Peptide 88.0174]	3400	323	944	> 20000	–
YLALTALIK [Peptide 9017.0097]	> 20000	> 20000	235	5900	–
TIVYIEYRK [Peptide 9017.0118]	–	13700	8830	18	–
GQGVSIEWRK [Peptide 9017.0219]	> 20000	8010	15000	2210	–
LTKMFCQLAK [Peptide 1556.51]	12600	2380	940	173	–
KQLQHTPSPY [Peptide 88.0204]	> 20000	> 20000	117	> 20000	–
KMFCQLAR [Peptide 1556.53]	–	35	22	249	–
SFTDLVRNFK [Peptide 88.0143]	56	47	1590	22	–
KQRFHNIRGR [Peptide 78.0083]	4440	178	2040	–	–
MLIQPPKLR [Peptide 88.0340]	146	699	16200	25	–
RFLSKISEYR [Peptide 1571.13]	20	14	1800	17	–
EVHIPLGDAR [Peptide 9017.0217]	–	9920	9390	9.5	–
AFADLTVVYR [Peptide 78.0058]	249	140	> 20000	39	–
GVRRATTSTK [Peptide 88.0210]	> 20000	3630	6.1	18300	–
DSNAQAFLK [Peptide 88.0379]	20	> 20000	> 20000	39	–
SQRLNVCQDK [Peptide 88.0205]	> 20000	13400	1870	> 20000	–
LLCGPANTGK [Peptide 88.0195]	> 20000	3650	137	1900	–
TVSATQIVR [Peptide 1589.26]	645	213	2540	14	–
SVCMGGMNR [Peptide 1556.60]	78	92	157	–	–
VTVYYGVPVRR [Peptide 1525.07]	795	59	–	32	271
CC(C)C[C@H](NC(=O)[C@H](CCCNC(=N)N)NC(=O)[C@H](CCC(=O)O)NC(=O)[C@H](CCC(N)=O)NC(=O)[C@H](CCCNC(=N)N)NC(=O)[C@H](C)NC(=O)[C@@H](N)CCCNC(=N)N)C(=O)N[C@@H](CCC(N)=O)C(=O)N[C@@H](CCCNC(=N)N)C(=O)O [Peptide 78.0311]	> 20000	350	–	> 20000	> 20000
RAHSSHLR [Peptide 1556.71]	–	40	1910	1720	–
LVKHHMYVSK [Peptide 9017.0216]	–	347	574	17	–
ATCALYWYR [Peptide 88.0371]	15	19	–	120	18

Molecule	IC50 (A*3301) [nM]	IC50 (A31 (A*3101)) [nM]	IC50 (HLA-A3.2 (A*0301)) [nM]	IC50 (A*6801) [nM]	IC50 (HLA-A11 (A*1101)) [nM]
VLMWKFDSR [Peptide 9017.0066]	63	72	–	516	883
TVTVSAELPK [Peptide 1556.16]	> 20000	> 20000	3430	–	–
NTMHYTNWK [Peptide 1589.16]	402	4920	–	11	11
ATNCTNKQR [Peptide 1589.20]	13000	51	1830	–	–
LTYDSEWQR [Peptide 1589.04]	–	–	888	14	–
WLSEPQKCFK [Peptide 88.0236]	617	2340	1690	–	–
NTKANILYK [Peptide 88.0358]	693	–	2120	100	–
GQWIQSRCEK [Peptide 88.0166]	4920	–	320	> 20000	–
MVVLLLVRYK [Peptide 1587.04]	4480	–	2630	720	–
KGLGISYGR [Peptide 1577.30]	> 20000	1.4	–	> 20000	415
LTALIKPKK [Peptide 9017.0100]	1110	2480	–	27	71
EFTAFLVAFK [Peptide 88.0193]	127	–	7480	980	–
TTLEKLTNK [Peptide 78.0283]	469	598	–	2560	42
VLCTYSPALNK [Peptide 1556.36]	> 20000	4800	–	14700	150
TSNECTNNK [Peptide 1589.31]	> 20000	8910	4790	–	–
VQVYFDGNK [Peptide 88.0399]	> 20000	> 20000	2050	–	–
RQQFLKTVK [Peptide 1589.33]	–	45	1320	> 20000	–
HLFGYSFYK [Peptide 76.0190]	33	27	5.4	–	–
GTRQARKNR [Peptide 9017.0071]	5070	24	–	> 20000	8350
SSLARRHMAR [Peptide 9017.0193]	190	4.8	–	869	928
KVSEFRWYRY [Peptide 78.0053]	7070	11	–	1910	24
YLTAPTGCLK [Peptide 1589.15]	> 20000	> 20000	–	2560	573
NVCVSWKYK [Peptide 88.0383]	2460	265	–	628	927
STTETADPK [Peptide 88.0441]	> 20000	3580	–	74	17
KISEYRHYQY [Peptide 1571.14]	> 20000	7220	–	11700	392
SFFSRTWCK [Peptide 88.0363]	4	12	–	66	16
SQACALYWFR [Peptide 88.0192]	–	42	4660	85	–
